From BindingDB's records for doi:10.1016/j.ejmech.2021.113764 (China Pharmaceutical University, 2021)

Assay: Antagonist activity at PAR4 in human platelet-rich plasma assessed as inhibition of PAR4 AP AYPGKF-NH2-induced platelet aggregation by photo-turbidimetry assay

| IC50 [µM] | Compound |
| --- | --- |
| 0.02 | COc1cc(Cl)c2nc(-c3cc(C)cc4c(=O)n(C)cnc34)sc2c1 |
| 0.174 | Cc1cc(-c2ccc(Cl)cc2Cl)c2ncn(C)c(=O)c2c1 |
| 0.078 | COc1cc(F)c2nc(-c3cc(C)cc4c(=O)n(C)cnc34)sc2c1 |
| 0.029 | Cc1cc(-c2nc3c(s2)CCCC3)c2ncn(C)c(=O)c2c1 |
| 0.107 | CCOCn1cnc2c(-c3nc4c(Cl)cc(OC)cc4s3)cc(C)cc2c1=O |
| 0.0066 | Cc1cc(-c2nc3c(Cl)cc(OCCNS(=O)(=O)c4ccc(C(F)(F)F)cc4)cc3s2)c2ncn(C)c(=O)c2c1 |
| 0.04 | CCc1cc(-c2nc3c(Cl)cc(OC)cc3s2)c2ncn(C)c(=O)c2c1 |

Assay: Antagonist activity at PAR4 in ICR mouse platelet-rich plasma assessed as inhibition of PAR4 AP AYPGKF-NH2-induced platelet aggregation by photo-turbidimetry assay

| Compound | IC50 [µM] |
| --- | --- |
| Cc1cc2c(c(-c3nn4ccnc4s3)c1)CCN(C)C2=O | > 10 |
| Cc1cc2c(c(-c3nn4cc(C)nc4s3)c1)CCN(C)C2=O | 8.7 |
| Cc1cc(-c2ccccc2)c2ncn(C)c(=O)c2c1 | > 10 |
| Cc1ccc(-c2cc(C)cc3c(=O)n(C)cnc23)cc1 | > 10 |
| Cc1cc(-c2ccccc2C)c2ncn(C)c(=O)c2c1 | > 10 |
| COc1ccccc1-c1cc(C)cc2c(=O)n(C)cnc12 | 7.32 |
| Cc1cc(-c2ccccc2F)c2ncn(C)c(=O)c2c1 | 5.48 |
| Cc1cc(-c2ccc(F)cc2O)c2ncn(C)c(=O)c2c1 | > 10 |
| Cc1cc(-c2cccc(Cl)c2Cl)c2ncn(C)c(=O)c2c1 | 3.7 |
| Cc1cc(-c2ccccc2C#N)c2ncn(C)c(=O)c2c1 | > 10 |
| Cc1cc(-c2cccnc2)c2ncn(C)c(=O)c2c1 | > 10 |
| Cc1cc(-c2nccs2)c2ncn(C)c(=O)c2c1 | 3.64 |
| Cc1cc(-c2cccc3ccccc23)c2ncn(C)c(=O)c2c1 | > 10 |
| Cc1cc(-c2ccc3ccccc3n2)c2ncn(C)c(=O)c2c1 | > 10 |
| Cc1cc(-c2cc3ccccc3o2)c2ncn(C)c(=O)c2c1 | 4.26 |
| Cc1cc(-c2nc3c(Cl)cc4c(c3s2)OCCO4)c2ncn(C)c(=O)c2c1 | 5.57 |
| COc1cc(Cl)c2nc(-c3cccc4c(=O)n(C)cnc34)sc2c1 | 6.78 |
| COc1cc(Cl)c2nc(-c3cc(C)cc4c(=O)n(C(C)C)cnc34)sc2c1 | 9.77 |
| COc1cc(Cl)c2nc(-c3cc(C)cc4c(=O)n(Cc5ccccc5)cnc34)sc2c1 | > 10 |
| COc1cc(Cl)c2nc(-c3cc(C)cc4c(=O)n(C)c(C(C)C)nc34)sc2c1 | > 10 |
| COc1cc(F)c2nc(-c3cccc4c(=O)n(C)cnc34)sc2c1 | 5.34 |

| Compound | IC50 [µM] |
| --- | --- |
| CCn1cnc2c(-c3nc4c(F)cc(OC)cc4s3)cc(C)cc2c1=O | 9.95 |
| COc1cc(F)c2nc(-c3cc(C)cc4c(=O)n(C(C)C)cnc34)sc2c1 | 6.74 |
| C#CCn1cnc2c(-c3nc4c(F)cc(OC)cc4s3)cc(C)cc2c1=O | 4.2 |
| COc1cc(F)c2nc(-c3cc(C)cc4c(=O)n(C)c(C)nc34)sc2c1 | 5.45 |
| CCn1cnc2c(-c3nc4c(s3)CCCC4)cc(C)cc2c1=O | 3.74 |
| Cc1cc(-c2nc3c(s2)CCCC3)c2ncn(C(C)C)c(=O)c2c1 | > 10 |
| CCOCn1cnc2c(-c3nc4c(s3)CCCC4)cc(C)cc2c1=O | 4.77 |
| CCc1cc(-c2nc3c(s2)CCCC3)c2ncn(C)c(=O)c2c1 | 3.54 |
| CCc1cc(-c2nc3c(s2)CCCC3)c2ncn(CC)c(=O)c2c1 | > 10 |
| CCCCc1cc(-c2nc3c(s2)CCCC3)c2ncn(C)c(=O)c2c1 | 7.04 |
| CCCCc1cc(-c2nc3c(s2)CCCC3)c2ncn(CC)c(=O)c2c1 | 6.28 |
| Cc1cc(-c2nc3c(s2)CCCC3)c2nc(C)n(C)c(=O)c2c1 | 8.21 |
| Cc1cc(-c2nc3c(Cl)cc(OCCNS(C)(=O)=O)cc3s2)c2ncn(C)c(=O)c2c1 | > 10 |
| Cc1cc(-c2nc3c(Cl)cc(OCCNS(=O)(=O)c4ccc(F)cc4)cc3s2)c2ncn(C)c(=O)c2c1 | 8.22 |
| Cc1cc(-c2nc3c(Cl)cc(OCCNC(=O)c4ccccc4)cc3s2)c2ncn(C)c(=O)c2c1 | > 10 |
| Cc1cc(-c2nc3c(Cl)cc(OCCNS(=O)(=O)c4ccc(-c5ccccc5)cc4)cc3s2)c2ncn(C)c(=O)c2c1 | > 10 |
| Cc1cn2nc(-c3cccc4ccoc34)sc2n1 | 7.61 |
| COCc1cc2cc(C)cc(-c3nn4cc(C)nc4s3)c2o1 | 4.82 |
| COCc1cc2ccc(OC)c(-c3nn4ccnc4s3)c2o1 | 10 |
| COCc1cc2ccc(OC)c(-c3nn4cc(C)nc4s3)c2o1 | 10 |

Next, values leading:

| IC50 [µM] | Compound |
| --- | --- |
| 3.13 | COCc1nc2cc(C)cc(-c3nn4cc(C)nc4s3)c2[nH]1 |
| 3 | Cc1cc(-c2nn3ccnc3s2)c2ccn(C)c(=O)c2c1 |
| 3.21 | Cc1cc(-c2nn3cc(C)nc3s2)c2ccn(C)c(=O)c2c1 |
| 0.79 | COCc1cnc2c(-c3nc4c(Cl)cc(OC)cc4s3)cc(C)cc2n1 |
| 1.63 | COCc1nc2cc(C)cc(-c3nc4c(Cl)cc(OC)cc4s3)c2[nH]1 |
| 1.84 | COc1cc(Cl)c2nc(-c3cc(C)cc4c3CCN(C)C4=O)sc2c1 |
| 0.98 | COc1cc(Cl)c2nc(-c3cc(C)cc4c(=O)n(C)ccc34)sc2c1 |
| 1.22 | Cc1cc(-c2ccc(Cl)cc2Cl)c2ncn(C)c(=O)c2c1 |
| 0.83 | COc1cc(F)c2nc(-c3cc(C)cc4c(=O)n(C)cnc34)sc2c1 |
| 0.11 | Cc1cc(-c2nc3c(s2)CCCC3)c2ncn(C)c(=O)c2c1 |
| 0.65 | CCOCn1cnc2c(-c3nc4c(Cl)cc(OC)cc4s3)cc(C)cc2c1=O |
| 0.17 | Cc1cc(-c2nc3c(Cl)cc(OCCNS(=O)(=O)c4ccc(C(F)(F)F)cc4)cc3s2)c2ncn(C)c(=O)c2c1 |
| 2.62 | Cc1cc(-c2nc3c(Cl)cc(Cl)cc3s2)c2ncn(C)c(=O)c2c1 |
| 2.07 | Cc1cc(-c2nc3c(Cl)cc(OCCNC(=O)OC(C)(C)C)cc3s2)c2ncn(C)c(=O)c2c1 |
| 1.85 | CCn1cnc2c(-c3nc4c(Cl)cc(OC)cc4s3)cc(C)cc2c1=O |
| 1 | COCn1cnc2c(-c3nc4c(Cl)cc(OC)cc4s3)cc(C)cc2c1=O |
| 1.38 | CCCCc1cc(-c2nc3c(Cl)cc(OC)cc3s2)c2ncn(C)c(=O)c2c1 |
| 2.09 | COc1cc(Cl)c2nc(-c3cc(C)cc4c(=O)n(C)c(C)nc34)sc2c1 |
| 2.61 | Cn1cnc2c(-c3nc4c(s3)CCCC4)cccc2c1=O |
| 1.38 | Cc1cc(-c2nc3c(s2)CCCC3)c2nc[nH]c(=O)c2c1 |
| 2.32 | COCn1cnc2c(-c3nc4c(s3)CCCC4)cc(C)cc2c1=O |
| 3.02 | Cc1cc(-c2nc3c(Cl)cc(OCCN)cc3s2)c2ncn(C)c(=O)c2c1 |
| 2.52 | Cc1cc(-c2nc3c(Cl)cc(OCCNS(=O)(=O)c4ccccc4)cc3s2)c2ncn(C)c(=O)c2c1 |
| 0.52 | Cc1ccc(S(=O)(=O)NCCOc2cc(Cl)c3nc(-c4cc(C)cc5c(=O)n(C)cnc45)sc3c2)cc1 |
| 1.04 | Cc1cc(-c2nc3c(Cl)cc(OCCNS(=O)(=O)c4ccc(Cl)cc4)cc3s2)c2ncn(C)c(=O)c2c1 |
| 0.95 | Cc1cc(-c2nc3c(Cl)cc(OCCNS(=O)(=O)c4ccc(Cl)cc4Cl)cc3s2)c2ncn(C)c(=O)c2c1 |
| 3.44 | COCc1cc2cc(C)cc(-c3nn4ccnc4s3)c2o1 |
| 0.16 | CCc1cc(-c2nc3c(Cl)cc(OC)cc3s2)c2ncn(C)c(=O)c2c1 |
| 0.94 | CSc1nn2cc(-c3cc4ccccc4o3)nc2s1 [US9862730, Example 1] |
| 1.82 | Cc1nn2cc(-c3cc4ccccc4o3)nc2s1 [US9862730, Example 41] |
